Reference: US5843925A, “Methods for inhibiting angiogenesis, proliferation of endothelial or tumor cells and tumor growth” (American Cyanamid Company, priority 1994, dated 1998)
Structures can show the parent of a compound that is named as a salt.

Columns and labels:
SW620 = test: Antiproliferative activity in human tumor cell lines (SW620); type: cell-based; settings: SW-620, SW620 colon tumor cell line
Procedure: PROTOCOLS 1, 2, and 3 are described in greater detail hereinbelow. In general, according to PROTOCOLS 1 and 2, the target ABAE and/or Human Tumor cells are exposed to the compound of Formula I for 48 hours. PROTOCOL 3 exposes ABAE cells to the compounds for 4 days. A detailed description of the protocol is as follows:
The antiproliferative activity of the compounds of Formula I of the present invention is evaluated in a panel comprised of human tumor cell lines and an adult bovine aortic endothelial cell line (ABAE). The human tumor cell lines are from
All cell lines are maintained in log phase in RPMI 1640 media, supplemented with 5% fetal calf serum, penicillin/streptomycin and 2 mM L-glutamine. Cultures are renewed after 20 passages with cells from a fresh stock of batch-frozen early passage cells. Cell lines are routinely checked for mycoplasma contamination (Genprobe). In a laminar flow hood, cells (1-5×10^4) are plated into 96-well microtiter plates in a volume of 0.1 ml/well with a bulk microtiter dispenser (Denley). […] At this concentration, dimethylsulfoxide has no effect on cell growth. Compounds are added using a Tomtec dispenser which simultaneously dispenses from one 96-well plate, containing the drug dilutions, to the plates containing the cells. After two days of continuous drug exposure, 50% cold trichloroacetic acid (TCA) is added to 10% final concentration to fix the cells, and after 60 minutes at 4° C., the TCA is aspirated and the plates are washed 5 times with deionized water using a microtiter plate washer. The number of cells on the plate are quantitated using a protein dye-binding assay (Monks et al., 1991). A 0.4% solution of the dye, sulforhodamine B, in glacial acetic acid is added to the plates, and the plates are washed 5 times with 1% glacial acetic acid using the automatic plate washed. The bound stain is solubilized with 0.1 ml of 10 mM Tris base. The optical densities are read from an automatic spectrophotometric plate reader (Dynatech) directly to a main frame computer (VAX 8600).
Positive controls, that include standard chemotherapeutic drugs (i.e., adriamycin, cisplatin, etc.), are included in every experiment.
Background optical density measurements (complete media-cells, and complete media+drug-cells) are automatically subtracted from the appropriate control and test wells. Mean values and standard errors are determined from duplicate wells. A measure is also made of the optical density at time when the drugs are added. The number of cells after treatment (P), as % of control, is calculated for every concentration of drug, as follows: [formula] wherein: T is optical density measurement for treated cells after 48 hours;
C is optical density measurement for untreated cells after 48 hours;
Co is optical density measurement for cells at the time of drug addition.
IC50 of growth inhibition is calculated from the sets of P values using the RS-1 data package (BBN Software).
Antiproliferative Activity in Human Tumor Cell Lines
The antiproliferative activity of the compounds of Formula I is evaluated in the panel comprised of human tumor cell lines as listed in PROTOCOL 1. This assay is a slight modification of PROTOCOL 1. The modifications include:
1) each concentration for each compound is tested in a single well;
2) compounds are tested at 20, 4, 0.8, 0.16 microgram/ml and additionally in some experiments at 100 and 0.32 microgram/ml;
3) samples are pipetted into a 96-well plate for each of the cell lines by a Beckman Biomek 1000 SL robot;
4) after fixing with TCA each well is washed with 0.35 ml distilled water twice, not five times;
5) after staining with sulforhodamine B each well is washed 3 times, not five times;
6) the growth inhibition (I) as % of control, is calculated using the RS-1 data package (BBN Software), for every concentration of drug, as follows: [formula] wherein: T is optical density measurement for treated cells after 48 hours; […]

[1] = tested on: Adult Bovine Aortic Endothelial (ABAE) cell line; test: Antiproliferative activity in Adult Bovine Aortic Endothelial (ABAE) cell line, PROTOCOL 1; type: cell-based; settings: Bos taurus; ABAE cells, 48 hours exposure
Procedure: The antiproliferative activity of the compounds of Formula I in an Adult Bovine Aortic Endothelial (ABAE) cell line and in Human Tumor cells lines is evaluated in three similar assays that measure growth inhibition. The assays are identified as follows: PROTOCOLS 1, 2, and 3 are described in greater detail hereinbelow. In general, according to PROTOCOLS 1 and 2, the target ABAE and/or Human Tumor cells are exposed to the compound of Formula I for 48 hours. PROTOCOL 3 exposes ABAE cells to the compounds for 4 days. A detailed description of the protocol is as follows: The antiproliferative activity of the compounds of Formula I of the present invention is evaluated in a panel comprised of human tumor cell lines and an adult bovine aortic endothelial cell line (ABAE). The human tumor cell lines are from All cell lines are maintained in log phase in RPMI 1640 media, supplemented with 5% fetal calf serum, penicillin/streptomycin and 2 mM L-glutamine. Cultures are renewed after 20 passages with cells from a fresh stock of batch-frozen early passage cells. Cell lines are routinely checked for mycoplasma contamination (Genprobe). […] The number of cells on the plate are quantitated using a protein dye-binding assay (Monks et al., 1991). […] The optical densities are read from an automatic spectrophotometric plate reader (Dynatech) directly to a main frame computer (VAX 8600). […] Mean values and standard errors are determined from duplicate wells. […] The number of cells after treatment (P), as % of control, is calculated for every concentration of drug, as follows: [formula] wherein: T is optical density measurement for treated cells after 48 hours; C is optical density measurement for untreated cells after 48 hours; Co is optical density measurement for cells at the time of drug addition. IC50 of growth inhibition is calculated from the sets of P values using the RS-1 data package (BBN Software). Table 2 presents the results depicting the antiproliferative activity of the compounds of Formula I against an adult bovine aortic endothelial cell line (ABAE), as evaluated by PROTOCOL 1 and PROTOCOL 3. […]

Row | SMILES | IC50 (SW620) | IC50 [1]
1 | CN(C)CC(=O)Nc1cc(N(C)C)c2c(c1O)C(=O)C1=C(O)[C@]3(O)C(=O)C(C(N)=O)=C(O)[C@@H](N(C)C)C3CC1C2 (stereo partly drawn) [Example 2, [4S-(4a,12aa-1-4,7-Bis(dimethylamino)-9-[[(dimethylamino)acetyl]amino]]-1,4,,4a,5,5a,6,11,12a-octahvdro-3,10,12,12a-tetrahydroxy-1,11-dioxo-2-napththacenecarboxamidedihydrochloride] | 5.6 µg/mL | 6.6 µg/mL
2 | CCCCCCNCC(=O)Nc1cc(N(C)C)c2c(c1O)C(=O)C1=C(O)[C@]3(O)C(=O)C(C(N)=O)=C(O)[C@@H](N(C)C)C3CC1C2 (stereo partly drawn) [Example 4, [4S-(4α,12aα)]-4,7-Bis(dimethylamino)-9-[(hexylamino)acetyl]amino]-1,4,4a,5,5a,6,11,12a-octahydro-3,10,12,12a-tetrahydroxy-1,11-dioxo-2-naphthacenecarboxamide dihydrochloride] | 2.7 µg/mL | 2.4 µg/mL
3 | CCCCCCCNCC(=O)Nc1cc(N(C)C)c2c(c1O)C(=O)C1=C(O)[C@]3(O)C(=O)C(C(N)=O)=C(O)[C@@H](N(C)C)C3CC1C2 (stereo partly drawn) [Example 5, [4S-(4α,12aα)]-4,7-Bis(dimethylamino)-9-[[(heptylamino)acetyl]amino]-1,4,4a,5,5a,6,11,12a-octahydro-3,10,12,12a-tetrahydroxy-1,11-dioxo-2-naphthacenecarboxamide dihydrochloride] | 2.4 µg/mL | 2.2 µg/mL
